# According to ChEMBL document CHEMBL1157539, “Thousands of chemical starting points for antimalarial lead identification” (Nature, 2010):
# Tested on: Plasmodium falciparum
# Assay: GSK_TCMDC: Inhibition of Plasmodium falciparum 3D7 in whole erythrocytes, using parasite LDH activity as an index of growth.
# Type: functional, organism-based
SMILES,"XC50 (Plasmodium falciparum, 3D7) [nM]",XC50 [nM]
CC(C)(C)c1cc(C(=O)N2CCN(c3ncnc4ccsc34)CC2)n(Cc2ccccc2)n1,907,–
COc1ccc2nccc([C@@H](O)CN3CCC(NCCNc4cccc(F)c4)CC3)c2c1,176,–
c1ccc(-c2cccnn2)cc1,910,–
O=C(Nc1ccsc1)Nc1cccc(-c2cccc(-c3nc4cc(F)ccc4[nH]3)c2)c1,199,–
Oc1ccc2ccccc2c1CNCCC1CCCCC1,174,–
Cc1cccc2nc(-c3ccc(-c4cccc(CN5CCC(CO)CC5)c4)s3)[nH]c12,935,–
N=C(N)Nc1ccc(OCCCCCOc2ccc(NC(=N)N)cc2)cc1,193,–
Cn1cncc1CCN(Cc1ccc(-c2ccc(C(F)(F)F)cc2)cc1)C(=O)Cn1c(SCc2cccc(F)c2F)cc(=O)c2ccccc21,990,–
CCN(CC)c1ccc(C(c2ccc(N(CC)CC)cc2)c2cccc([N+](=O)[O-])c2)cc1,381,–
CCNC(=O)Nc1ccc(-c2ccc(-c3nc4cccc(C)c4[nH]3)s2)cc1,1070,–
c1ccc2oc(-c3cc4ccncc4cc3OC3CCNCC3)cc2c1,1470,–
CC(C)(CNC(=O)C1CCN(CCOc2ccc(F)c(F)c2)CC1)c1nc(-c2ccc(Cl)c(O)c2)c(-c2ccncc2)[nH]1,316,–
Cc1ccc(NC(=O)c2ccc(C(=O)NC3CCN(CC4CCCCC4)CC3)cc2)cc1,903,–
O=S(=O)(Nc1ccc(CCN2CCC(N3CCCCC3)CC2)cc1)c1ccccc1C(F)(F)F,1020,–
COc1ccc(O)c(C(=O)c2cnc3c(c2)c(-c2ccc(F)cc2)c(C#N)c(=O)n3C)c1,792,–
COc1ccc2[nH]c(C)cc(=NN=Cc3ccncc3)c2c1,697,–
O=C(NC1CCN(c2ncc(C(F)(F)F)cc2Cl)CC1)c1cccs1,897,–
N#Cc1ccc(NC(=O)NC2CCN(CCCCCNC(=O)/C=C/c3ccc(Cl)c(Cl)c3)CC2)cc1,800,–
CC[C@H](C)CNC(=O)c1cncc(-c2ccc(CNCCCc3ccccc3)cc2)c1,735,–
CCn1c(-c2nonc2N)nc2cnc(Oc3cccc(NC(=O)c4ccc(OCCN5CCCCC5)cc4)c3)cc21,1060,–
O=S(=O)(Nc1cc2c(cc1O)CCN(C1CCC1)CC2)c1ccc(Oc2ccc(F)cc2)cc1,775,–
O=C(Nc1ccc(Cl)cc1)NC1CCN(CCCCCNC(=O)C2CC2c2ccc(Cl)c(Cl)c2)CC1 (stereo not drawn),576,–

SMILES,"XC50 (Plasmodium falciparum, 3D7) [nM]",XC50 [nM]
c1ccc(CNc2nc(NCCc3c[nH]cn3)nc(NCc3cccc4ccccc34)n2)cc1,1110,–
COc1ccc2c(OC)cccc2c1CNCCCCCCNCc1c(OC)ccc2c(OC)cccc12,686,–
C=CCC(C(=O)Nc1ccnc2ccc(OC)cc12)C1CCN(CCCCCCC)CC1 (stereo not drawn),242,–
O=C(Nc1ccc(N2CCN(Cc3ccccc3)CC2)cc1)c1cccs1,769,–
CCOC(=O)c1ccc(NC(=O)Nc2cccc(-c3ccc(-c4nc5cc(C(F)(F)F)ccc5[nH]4)cc3)c2)cc1,212,–
O=C(CCCC(=O)Nc1ccc(C2=NCCN2)cc1)Nc1ccc(C2=NCCN2)cc1,106,–
CN(C)CCOc1cc(NC(=O)Nc2ccc(-c3ccccc3)cc2)ccc1I,595,–
O=C(Nc1cccc(-c2ccc(NCCCN3CCCC3)nc2)c1)c1ccccc1,865,–
N#Cc1ccc2c(c1)CCN(CCC1CCC(NC(=O)/C=C/c3cc(Br)cs3)CC1)CC2 (stereo not drawn),997,–
COc1cccc(Cc2c(C)nc3nc(N)nc(N)c3c2C)c1,879,–
COC(=O)[C@@H](NC(=O)[C@@H](Nc1ccc(C#N)c2ccccc12)C(C)(C)C)c1ccc(O)cc1,777,–
COc1cccc(CN2CCCC(OC(c3ccccc3)c3ccccc3)C2)c1O (stereo not drawn),930,–
NC(=O)c1ccc(NCC(=O)Nc2cccc(-c3cccc(-c4nc5cc(C(F)(F)F)ccc5[nH]4)c3)c2)cc1,270,–
CCc1cc2c(O)c([N+](=O)[O-])c(=O)oc2cc1OCCCCCOc1cc2oc(=O)c([N+](=O)[O-])c(O)c2cc1CC,257,–
O=C(c1ccccc1F)N(Cc1ccc(Cl)cc1)c1ccccn1,1020,–
COc1ccc2nccc(NC(=O)CNCc3ccc(-c4ccccc4)cc3)c2c1,769,–
CC1CN=C(Nc2ncc(Cl)cc2Cl)N1 (stereo not drawn),237,–
CCSc1ccccc1COc1c(C)nc(N)nc1N,68.4,–
O=C(c1ccccc1NN=C1C(=O)N(c2ccccc2)N=C1c1ccccc1)N1CCOCC1,351,–
COc1cccc2sc(Nc3nc(-c4ccccn4)cs3)nc12,805,–
Cc1cc(NCCCOc2ccc(Cl)cc2)nc(NCc2ccccc2)n1,782,–
Cc1cnc(NCCc2ccc(F)cc2)nc1NCCC(=O)Nc1ccccc1,946,–

SMILES,"XC50 (Plasmodium falciparum, 3D7) [nM]",XC50 [nM]
CN1CCC(C(=O)Nc2cccc(-c3cccc(-c4nc5cc(F)ccc5[nH]4)c3)c2)CC1,695,–
O=C(/C=C/c1ccc(Cl)c(Cl)c1)NCCCCCN1CCC(NC(=O)Nc2ccc(Cl)c(Cl)c2)CC1,892,–
CN1CCc2cc(NS(=O)(=O)c3ccc(-c4ccc(Cl)s4)cc3)c(N3CCCCC3)cc2CC1,727,–
CCOc1cc(Cl)c(C(C)NC(=O)c2cccc(OC)c2)cc1OCC (stereo not drawn),956,–
COc1ccc(NC(=O)c2cccc(Br)c2)cc1N1CCN(CCCCCCCN2CCN(c3cc(NC(=O)c4cccc(Br)c4)ccc3OC)CC2)CC1,184,–
O=C1OC(c2ccccc2)(c2ccccn2)CN1C1CCN(Cc2cccn2-c2ccc(Cl)cc2)CC1 (stereo not drawn),475,–
c1ccc(C(OCCC2CCN(Cc3cccnc3)CC2)c2ccccc2)cc1,817,–
O=[N+]([O-])c1nc(Br)n(Cc2ccc(Cl)cc2)n1,360,–
Cc1cc(Br)cnc1CCCCNc1cc(=O)c2ccccc2[nH]1,1160,–
CCC(=O)Oc1ccc(NC(=O)c2cccc(OC)c2)cc1,771,–
COCCn1c(C)nc2ccccc2c1=O,1460,–
CS(=O)(=O)Nc1ccc2[nH]cc(C3CCN(CCCCCNC(=O)/C=C/c4ccc(Cl)c(Cl)c4)CC3)c2c1,736,–
COc1cc2nc(Nc3ccc4c(ccn4Cc4ccccc4)c3)nc(Nc3ccc4c(ccn4Cc4ccccc4)c3)c2cc1OC,647,–
CO/C(=C\C=C\c1cc2cc(Cl)c(Cl)cc2[nH]1)C(=O)NCCCN1CCN(C2CCCCC2)CC1,1010,–
O=C(O)c1ccc2nc(-c3ccc(-c4ccccc4)cc3)n(C3CCN(Cc4ccc(-c5ncc[nH]5)cc4)CC3)c2c1,1730,–
CCCc1nc2c(N3CC(NC(=O)/C=C/c4ccccc4)C3)cccc2n1C1CC1,554,–
Brc1cc2c(cc1C=NNc1nc(=Nc3ccccc3)[nH]c(=Nc3ccccc3)[nH]1)OCO2,798,–
CC1CCCN(C(=O)C(C)Nc2cc(Cl)ccc2N2CCOCC2)C1 (stereo not drawn),316,–
CCc1cn2c3c(cc(C(=O)N[C@@H](Cc4ccccc4)[C@H](O)CNC4CC4)cc13)N(CC)S(=O)(=O)CC2,112,–
Cc1cc(-c2ccc(CNCCc3cccs3)cc2)ccc1S(=O)(=O)NCc1ccccc1,1140,–
CCOC(=O)CN1Cc2cc(NCc3ccc4ccc5nc(C)[nH]c(=O)c5c4c3)ccc2C1=O,700,–
O=C(CCC1CCCCC1=O)c1ccccc1 (stereo not drawn),766,–

SMILES,"XC50 (Plasmodium falciparum, 3D7) [nM]",XC50 [nM]
Cc1[nH]c2c(NCc3ccc(F)cc3)nccc2c1C,1360,–
C=CCc1c(C(=O)NCC23CC4CC(CC(C4)C2)C3)nc2ccccc2c1O,1030,–
CCCOc1cc(OCCC)cc(-c2ccc(C(=O)Nc3ccc4ccc(C)nc4c3)c(=O)[nH]2)c1,750,–
CC(C)CN1CCN(c2nc(C#N)c3c(c2C(=S)NC2CCCCC2)CC(C)(C)OC3)CC1,296,–
O=C(NCCc1ccccc1)[C@H](Cc1ccccc1)Nc1ccnc(NCC2CCCCC2)n1,1380,–
O=C(NC1CCC1)C1CCN(C(c2ccc(Cl)cc2)c2ccc(Cl)cc2)CC1,562,–
CCc1cccc(NC(=O)/C=C/c2ccc3c(c2)CN(C)CC3)c1,767,–
N#Cc1cncc(-c2nc3c(N4CCC(N5CCCC5)CC4)cccc3n2CCNCc2ccccc2)c1,874,–
Cc1cc(Cl)ccc1NC(=O)NCCCCCN1CCC(c2c[nH]c3ccccc23)CC1,1010,–
CCC(=O)c1cc(C(=O)NCCc2cccc(OC)c2)ccc1OC,902,–
Oc1cccc(-c2nc3cc(C4=NC5CCCCC5N4)ccc3[nH]2)c1 (stereo not drawn),–,530
COc1ccc(NC(=O)c2ccc(Br)c(C)c2)cc1N1CCN(Cc2ccccc2)CC1,918,–
O=C(c1ccc(OCCn2ccnc2)cc1)N1CCC(c2ccc(Br)cc2)C1 (stereo not drawn),116,–
O=C(Nc1ccc(Cl)cc1Cl)NC1CCN(CCCCCNC(=O)C2CC2c2ccc(Cl)c(Cl)c2)CC1 (stereo not drawn),367,–
CCCCCCCN(CCCCCCC)CCCC(=O)Nc1ccnc2ccc(OC)cc12,154,–
Cc1ccc(Oc2ncccc2C(=O)Nc2cccc3cccnc23)c(C)c1,225,–
CCOc1cc(C(=O)Nc2ccc3nc(N4CCCCC4)cc(C)c3c2)cc(OCC)c1OCC,825,–
CC1(C)NC(N)=NC(=N)N1OCCCCOc1ccccc1,3.2,–
O=C(O)C[C@H](NC(=O)[C@@H]1CCCN1C(=O)c1cccc(-c2ccc(Cl)c(Cl)c2)c1)C(=O)O,863,–
Cc1cc(C2CCN(CCCCNC(=O)c3ccc(NC(=O)c4ccc(Cl)cc4)cc3)CC2)c(C)cc1OCc1ccncc1,501,–
Cc1cccc2nc(-c3cccc(-c4ccc(CNCc5cccc(N)c5)cc4)c3)[nH]c12,260,–
CC[C@H](C)CNC(=O)c1cncc(-c2ccc(CN(C)C3CCN(C)CC3)cc2)c1,987,–
